Experimental data reported in publication PMC7435865, “Antinociceptive and Cytotoxic Activity of Opioid Peptides with Hydrazone and Hydrazide Moieties at the C-Terminus” (Molecules, 2020).
Like-named read-outs stand apart in the source and are kept apart here. Where a SMILES comes first, the peptide text is derived from it. [ ]: non-standard residue; d: D form. The star is where a group is joined. X4 = O=C(NN*)c1cc(C(F)(F)F)cc(C(F)(F)F)c1; X3 = FC(F)(F)c1cc(C=NN*)cc(C(F)(F)F)c1

Key:
[1] = target: T1, neurokinin-1 receptor (NK1R) (Rattus norvegicus, UniProt P14600); assay: competitive radioligand binding, [3H]Substance P displacement in rat brain homogenate
T1 construct: from tissue; host or cells: rat brain (membrane fractions of homogenate)
T1 sequence (P14600 whole entry): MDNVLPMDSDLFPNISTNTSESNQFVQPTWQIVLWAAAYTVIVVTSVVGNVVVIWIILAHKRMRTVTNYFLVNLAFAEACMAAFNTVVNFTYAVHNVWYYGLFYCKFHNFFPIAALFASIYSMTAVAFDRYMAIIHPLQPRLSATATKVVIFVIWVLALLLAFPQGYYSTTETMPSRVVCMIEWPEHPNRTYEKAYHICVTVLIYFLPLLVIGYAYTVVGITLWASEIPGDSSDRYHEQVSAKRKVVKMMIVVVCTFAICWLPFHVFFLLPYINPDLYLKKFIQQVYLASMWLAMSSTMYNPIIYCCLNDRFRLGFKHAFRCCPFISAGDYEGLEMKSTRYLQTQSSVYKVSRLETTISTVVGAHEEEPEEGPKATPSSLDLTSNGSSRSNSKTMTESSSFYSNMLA
Procedure: (§1) The synthesized compounds were assayed for binding affinity to the μ- and δ-opioid (MOR and DOR, respectively), as well as to the neurokinin-1 receptors (NK1R). The determinations were performed in rat brain homogenates by competitive displacement of selective radioligands. The results are shown in Table 2 as the half-maximal inhibitory concentration (IC50) with the standard error of the mean (SEM).
(§2) The binding affinity of compounds 1b–6a for MOR, DOR, and NK1R was determined in competitive radioligand binding assays according to the method previously described. The specific radioligands were [^3H]DAMGO (DAMGO, [Tyr^1-3,5-^3H])), [^3H][Ile^5,6]DELT II ([Ile^5,6]Deltorphin II, [Tyr^l-3,5-^3H]) and [^3H]Substance P (Substance P, [Leu-3,4,5-^3H]), for experiments with MOR, DOR, and NK1R, respectively. The first two were obtained from Isotope Laboratory, Biological Research Centre, Institute of Biochemistry (Szeged, Hungary), whereas the latter was purchased from Perkin Elmer (Perkin Elmer Inc., Krakow, Poland). Membrane fractions of rat brain homogenate were incubated at 25 °C for 60 min in the presence of radioligands (0.5 nM) specific for each receptor and increasing concentrations of the tested compounds. To measure non-specific binding, 10 μM naloxone was used as the competitor for opioid receptors and 10 μM cold Substance P was used for NK1R. The reactions were carried out in assay buffer containing Tris-HCl (pH 7.4) with an addition of bovine serum albumin (BSA) and protease inhibitors (bacitracin, bestatin, captopril). After the incubation, the binding reactions were terminated by rapid filtration with M-24 Cell Harvester (Brandel/USA) through GF/B Whatman glass fiber strips (presoaked with 0.5% PEI in order to minimize non-specific binding). Radioactivity retained on the filters was measured in MicroBeta LS on a Trilux scintillation counter (PerkinElmer, Santa Clara, CA, USA). The experiments were repeated at least two times in duplicate. The IC50 value for each compound was determined using GraphPad Prism.

[2] = target: T2, µ opioid receptor (MOR) (Rattus norvegicus, UniProt P33535); assay: competitive radioligand binding, [3H]DAMGO displacement in rat brain homogenate
T2 construct: from tissue; host or cells: rat brain (membrane fractions of homogenate)
T2 sequence (P33535 whole entry): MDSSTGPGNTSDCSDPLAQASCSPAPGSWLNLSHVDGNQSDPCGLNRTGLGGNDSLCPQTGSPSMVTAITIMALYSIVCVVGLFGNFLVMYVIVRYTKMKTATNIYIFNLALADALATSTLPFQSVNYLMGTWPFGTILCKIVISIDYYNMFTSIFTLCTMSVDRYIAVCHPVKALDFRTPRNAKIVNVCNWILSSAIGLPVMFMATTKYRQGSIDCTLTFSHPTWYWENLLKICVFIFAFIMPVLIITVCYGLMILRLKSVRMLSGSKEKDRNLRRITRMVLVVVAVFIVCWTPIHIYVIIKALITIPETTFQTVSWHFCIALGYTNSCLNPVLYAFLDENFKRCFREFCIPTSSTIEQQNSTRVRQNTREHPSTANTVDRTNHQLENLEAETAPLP
Procedure: as §1, §2

[3] = test system: MeW155 human melanoma cells; assay: melanoma cell number in culture after incubation with compound; type: cell-based; conditions: 50 µM, 96 h incubation
Procedure: The determination was performed by counting the cells of the MeW155 cell line after incubating them with 50 µM of the tested compounds.
The cells were plated in 24-well plates (5000 cells per well) and incubated for 24 h in Eagle’s medium containing 10% fetal bovine serum and 1% solution of penicillin and streptomycin. […] Control cells were treated with 1% DMSO only. After 96 h of incubation, the cell suspension was first lysed in lysis buffer (ReagentA, ChemoMetec A/S) and then stabilized in stabilization buffer (ReagentB, ChemoMetec A/S). The number of […] was quantified in a propidium iodide cassette with the use of a NucleoCounter® NC-100™ (ChemoMetec A/S) cell counter. The tests were performed in triplicate. The results were normalized so that the values obtained for the control were 100%.

[4] = test system: male Wistar rats; assay: tail flick test after intrathecal administration; type: in vivo, rat; conditions: for ED50 ± SEM: tail flick, i.t., n = 4–8
Procedure: Analgesic activity of compounds 1b–1d was measured in the tail flick test after intrathecal administration to rats, according to a procedure thoroughly described before. First, adult male Wistar rats weighing 200–250 g were prepared for intrathecal administration by the catherization method described previously by Yaksh and Rudy. Each experimental group consisted of 4–8 rats. Next, spinally mediated analgesia was assessed in the tail flick test utilizing the Plantar Test and Tail Flick Analgesia Meter apparatus (IITC Life Science Inc., Los Angeles, CA, USA). Withdrawal latency was measured in triplicate. The cut-off latencies were set at 7 s to avoid burns. The measurements were performed before the administration of the tested compound (time 0) and 5, 15, 30, 60, and 120 min after injection. The control group received injections of 0.9% NaCl. Data from in vivo studies are presented as means ± SEM and were analyzed using two-way repeated measures of ANOVA followed by Dunnett-corrected multiple comparisons. Significance was defined as * p < 0.033, ** p < 0.002, *** p < 0.001. Data were analyzed using GraphPad Prism. The responses were expressed as a percentage of a maximum possible effect (%MPE), calculated as ((T1 − T0)/(T2 − T0)) × 100, where T0 and T1 are latencies before and after drug injection, respectively, and T2 is the cut-off time. All experimental procedures were approved by The Local Committee for Ethics in Animal Experiments, permission no. 46/2013.

[5] = target: T3, δ opioid receptor (DOR) (Rattus norvegicus, UniProt P33533); assay: competitive radioligand binding, [3H][Ile5,6]Deltorphin II displacement in rat brain homogenate
T3 construct: from tissue; host or cells: rat brain (membrane fractions of homogenate)
T3 sequence (P33533 whole entry): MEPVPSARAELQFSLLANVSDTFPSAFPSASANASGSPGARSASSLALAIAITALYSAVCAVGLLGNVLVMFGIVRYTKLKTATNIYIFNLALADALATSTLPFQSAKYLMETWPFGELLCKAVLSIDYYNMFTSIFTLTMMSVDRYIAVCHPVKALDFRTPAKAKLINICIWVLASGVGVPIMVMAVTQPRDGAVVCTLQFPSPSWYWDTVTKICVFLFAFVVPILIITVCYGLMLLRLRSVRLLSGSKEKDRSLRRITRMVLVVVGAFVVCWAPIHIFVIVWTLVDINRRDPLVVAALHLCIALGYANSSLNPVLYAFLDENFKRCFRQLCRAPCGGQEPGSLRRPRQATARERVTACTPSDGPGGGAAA
Procedure: as §1, §2

[6] = 0.5 nmol/rat i.t., 15 min after injection

Structure (SMILES) | IC50 [1] | IC50 [2] | effect on number of melanoma cells (in words) [3] | IC50 [5] | number of MeW155 cells, % of the control value [3] | DOR binding (in words) ([5]; rat brain homogenate) | also measured
C[C@@H](NC(=O)[C@@H](N)Cc1ccc(O)cc1)C(=O)NCC(=O)N[C@@H](Cc1ccccc1)C(=O)NNC(=O)c1cc(C(F)(F)F)cc(C(F)(F)F)c1 [1b, H-Tyr-D-Ala-Gly-Phe-NH-NH-C(=O)-3,5-(CF3)2Ph] | > 1000 nM | 111 ± 12.7 nM | no effect | 413 ± 105 nM | – | – | area under the time course curve (AUC) of analgesic effect ([4]; 0.5 nmol/rat i.t.): 3421 ± 673 units; antinociceptive effect, % of maximal possible effect [4, 6]: 65 ± 6 % MPE
C[C@@H](NC(=O)[C@@H](N)Cc1ccc(O)cc1)C(=O)NCC(=O)N[C@@H](Cc1ccccc1)C(=O)NNC(=O)Cc1cc(C(F)(F)F)cc(C(F)(F)F)c1 [1c, H-Tyr-D-Ala-Gly-Phe-NH-NH-C(=O)-CH2-3,5-(CF3)2Ph] | > 1000 nM | 5.25 ± 1.14 nM | no effect | 162 ± 8.75 nM | – | – | area under the time course curve (AUC) of analgesic effect ([4]; 0.5 nmol/rat i.t.): 1417 ± 730.1 units; antinociceptive effect, % of maximal possible effect [4, 6]: 31 ± 6 % MPE; antinociceptive effect, % of maximal possible effect ([4]; 1 nmol/rat i.t., 15 min): 85 ± 7 % MPE; ED50 ± SEM [4]: 0.56 ± 0.04 nmol/rat
C[C@@H](NC(=O)[C@@H](N)Cc1ccc(O)cc1)C(=O)NCC(=O)N[C@@H](Cc1ccccc1)C(=O)NNC(=O)NN=Cc1cc(C(F)(F)F)cc(C(F)(F)F)c1 [1d, H-Tyr-D-Ala-Gly-Phe-NH-NH-C(=O)-NH-N=CH-3,5-(CF3)2Ph] | > 1000 nM | 4.73 ± 0.02 nM | no effect | 44 ± 2.75 nM | – | – | area under the time course curve (AUC) of analgesic effect ([4]; 0.5 nmol/rat i.t.): 5732 ± 1161 units; antinociceptive effect, % of maximal possible effect [4, 6]: ~ 80 % MPE; antinociceptive effect, % of maximal possible effect ([4]; 2 nmol/rat i.t., 120 min after administration): 39 ± 10 % MPE; antinociceptive effect, % of maximal possible effect ([4]; 4 nmol/rat i.t., 15 min): 99 ± 7 % MPE; ED50 ± SEM [4]: 0.32 ± 0.04 nmol/rat
C[C@@H](NC(=O)[C@@H](N)Cc1ccc(O)cc1)C(=O)NCC(=O)N[C@@H](Cc1c[nH]c2ccccc12)C(=O)NN=Cc1cc(C(F)(F)F)cc(C(F)(F)F)c1 [2a, H-Tyr-D-Ala-Gly-Trp-NH-N=CH-3,5-(CF3)2Ph] (H-Y[dA]GW-X3) | > 1000 nM | 112 ± 16.9 nM | significantly decrease the number of melanoma cells | 914 ± 43.5 nM | 20 ± 4 % of the control | – | MOR IC50 ratio 2a and 1a ([2]; ratio of IC50 of hydrazones 2a and 1a): about 10
C[C@@H](NC(=O)[C@@H](N)Cc1ccc(O)cc1)C(=O)NCC(=O)N[C@@H](Cc1c[nH]c2ccccc12)C(=O)NNC(=O)c1cc(C(F)(F)F)cc(C(F)(F)F)c1 [2b, H-Tyr-D-Ala-Gly-Trp-NH-NH-C(=O)-3,5-(CF3)2Ph] (H-Y[dA]GW-X4) | > 1000 nM | 93.5 ± 32.8 nM | no effect | 467 ± 36.9 nM | – | – | –
C[C@@H](NC(=O)[C@@H](N)Cc1ccc(O)cc1)C(=O)N[C@@H](Cc1ccccc1)C(=O)N[C@@H](Cc1ccccc1)C(=O)NN=Cc1cc(C(F)(F)F)cc(C(F)(F)F)c1 [3a, H-Tyr-D-Ala-Phe-Phe-NH-N=CH-3,5-(CF3)2Ph] (H-Y[dA]FF-X3) | 723 ± 58.2 nM | 90.4 ± 9.91 nM | significantly decrease the number of melanoma cells | > 1000 nM | ~ 2 % of the control | do not exhibit any appreciable DOR binding | –
C[C@@H](NC(=O)[C@@H](N)Cc1ccc(O)cc1)C(=O)N[C@@H](Cc1ccccc1)C(=O)N[C@@H](Cc1ccccc1)C(=O)NNC(=O)c1cc(C(F)(F)F)cc(C(F)(F)F)c1 [3b, H-Tyr-D-Ala-Phe-Phe-NH-NH-C(=O)-3,5-(CF3)2Ph] (H-Y[dA]FF-X4) | > 1000 nM | 391 ± 57.9 nM | no effect | > 1000 nM | – | do not exhibit any appreciable DOR binding | –
C[C@@H](NC(=O)[C@@H](N)Cc1ccc(O)cc1)C(=O)N[C@@H](Cc1c[nH]c2ccccc12)C(=O)NN=Cc1cc(C(F)(F)F)cc(C(F)(F)F)c1 [4a, H-Tyr-D-Ala-Trp-NH-N=CH-3,5-(CF3)2Ph] | > 1000 nM | 118 ± 40.2 nM | significantly decrease the number of melanoma cells | 621 ± 65.2 nM | 65 ± 10 % of the control | – | –
C[C@@H](NC(=O)[C@@H](N)Cc1ccc(O)cc1)C(=O)N[C@@H](Cc1c[nH]c2ccccc12)C(=O)NNC(=O)c1cc(C(F)(F)F)cc(C(F)(F)F)c1 [4b, H-Tyr-D-Ala-Trp-NH-NH-C(=O)-3,5-(CF3)2Ph] | – | – | no effect | – | – | – | IC50 ([1]; rat brain homogenate, [3H]Substance P 0.5 nM, read-out: NK1R IC50 ± SEM): > 1000 nM; IC50 ([2]; rat brain homogenate, [3H]DAMGO 0.5 nM, read-out: MOR IC50 ± SEM): > 1000 nM; IC50 ([5]; rat brain homogenate, [3H][Ile5,6]DELT II 0.5 nM, read-out: DOR IC50 ± SEM): > 1000 nM
N[C@@H](Cc1ccc(O)cc1)C(=O)N1CCC[C@H]1C(=O)N[C@@H](Cc1ccccc1)C(=O)N[C@@H](Cc1ccccc1)C(=O)NN=Cc1cc(C(F)(F)F)cc(C(F)(F)F)c1 [5a, H-Tyr-Pro-Phe-Phe-NH-N=CH-3,5-(CF3)2Ph] | > 1000 nM | 28.5 ± 9.41 nM | significantly decrease the number of melanoma cells | > 1000 nM | ~ 2 % of the control | do not exhibit any appreciable DOR binding | –
N[C@@H](Cc1ccc(O)cc1)C(=O)N1CCC[C@H]1C(=O)N[C@@H](Cc1ccccc1)C(=O)NN=Cc1cc(C(F)(F)F)cc(C(F)(F)F)c1 [6a, H-Tyr-Pro-Phe-NH-N=CH-3,5-(CF3)2Ph] | > 1000 nM | 113 ± 7 nM | significantly decrease the number of melanoma cells | > 1000 nM | 53 ± 3 % of the control | do not exhibit any appreciable DOR binding | –
C[C@@H](O[C@H]1OCCN(Cc2n[nH]c(=O)[nH]2)[C@H]1c1ccc(F)cc1)c1cc(C(F)(F)F)cc(C(F)(F)F)c1 [aprepitant, reference compound] | – | – | – | – | 78 ± 4 % of the control | – | –
